Assay results as given in PubChem BioAssay (NCI).
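Growth conditions: 96-well plates. Treatment: test compound, 48 hours, 5 concentrations. Analysis: linear interpolation between bracketing concentrations; unreached endpoints set to highest concentration. TGI: concentration producing complete growth inhibition.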

Assays:
Test in all cases: NCI tumour cell line growth inhibition, 48 h
[1] = system: SNB-19 CNS
[2] = system: NCI-H23 lung
[3] = system: U251 CNS
[4] = system: SK-OV-3 ovarian
[5] = system: OVCAR-8 ovarian
[6] = system: DU-145 prostate
[7] = system: OVCAR-3 ovarian
[8] = system: UACC-257 melanoma
[9] = system: HCC-2998 colon
[10] = system: A498 renal
[11] = system: K-562 leukemia
[12] = system: SK-MEL-2 melanoma

SMILES	TGI [1]	TGI [2]	TGI [3]	TGI [4]	TGI [5]	TGI [6]	TGI [7]	TGI [8]	TGI [9]	TGI [10]	TGI [11]	TGI [12]
c1ccc2c(CN3CCN(Cc4c[nH]c5ccccc45)CC3)c[nH]c2c1	45.9 µM	42.7 µM	29.3 µM	61.8 µM	37.6 µM	40.7 µM	35.6 µM	27.5 µM	3.29 µM	27.8 µM	39.7 µM	31.5 µM
NC(=O)C(=O)c1ncn(Cc2ccccc2)c1N	> 100 µM	> 100 µM	> 100 µM	> 100 µM	> 100 µM	> 100 µM	> 100 µM	> 100 µM	> 100 µM	> 100 µM	> 100 µM	> 100 µM
CC(=O)Nc1ccc(NS(=O)(=O)c2ccc3nc(C)n(NS(=O)(=O)c4ccc(NC(C)=O)cc4)c(=O)c3c2)cc1	> 100 µM	> 100 µM	> 100 µM	> 100 µM	> 100 µM	> 100 µM	> 100 µM	> 100 µM	> 100 µM	> 100 µM	> 100 µM	> 100 µM
CN(C)CCNc1nc2ccccc2c2c1CCCC2	> 100 µM	> 100 µM	37 µM	42.9 µM	> 100 µM	> 100 µM	> 100 µM	29.3 µM	25.6 µM	35.8 µM	39.9 µM	32.5 µM
